Earlier results, collected in patent US8349557B2 (priority 2008, dated 2013).
Like-named read-outs stand apart in the source and are kept apart here. Each block holds one compound with its values, some of them ahead of it.

What was measured:
skeletal muscle = settings: in some patients
[1] = test system: rat hepatoma cell line, H-4-II-E cells
cerebellar granule cells = settings: 24 hours

autophagic vacuolation in skeletal muscle (skeletal muscle): florid autophagic vacuolation
SMILES: CCN(CC)CCCC(C)Nc1ccnc2cc(Cl)ccc12 (stereo not shown) [chloroquine]
degradation of long-lived proteins (lysosomes): impairs the degradation of long-lived proteins
lysosomal pH (lysosomes): raises their pH

SMILES: CO/C1=C\C(C)=C\[C@@H](C)[C@@H](O)[C@@H](C)C/C(C)=C/C=C/[C@H](OC)[C@@H]([C@@H](C)[C@@H](O)[C@H](C)[C@@]2(O)C[C@@H](O)[C@H](C)[C@@H](C(C)C)O2)OC1=O [bafilomycin]
effect on macroautophagy / autophagosome formation [1]: explosive autophagosome formations occupying vast portions of the cytoplasm
effect on macroautophagy / autophagosome formation ([1]; non-starved cells, 100 nM bafilomycin, one hour): no significant effect
vacuoles in the cytoplasm (cerebellar granule cells; 0.3 nM bafilomycin): not present
vacuoles in the cytoplasm (cerebellar granule cells; 10 nM bafilomycin): accumulation of large, swollen, single-membraned vacuoles in the cytoplasm with electron-dense deposits
V-ATPase activity (V-ATPase; 0.3 nM bafilomycin): 40-50 % of normal
V-ATPase activity (V-ATPase; 10 nM bafilomycin): below 10%
V-ATPase activity (V-ATPase; 100 nM bafilomycin (high-dose)): completely eliminates V-ATPase activity
